Activity and MEC data for 21 compounds are collected here from ChEMBL document CHEMBL4420066, “Aryl amine substituted quinoxaline used as anticancer drugs” (2017).

Assay [1] is filed under the species Homo sapiens. Nature of the assay: Cytotoxicity against human PLC5 cells assessed as reduction in cell viability at 0.5 to 4 uM incubated for 48 hrs by MTT assay. It counts as functional, cell-based. In general terms: Formazan colour is commonly taken as a measure of viable cells.
Assay [2] has as its system Homo sapiens. Put plainly: Antitumor activity against human PLC5 cells xenografted in mouse assessed as reduction in tumor size at 10 mg/kg dosed for 4 weeks. The format is functional, organism-based.
Assay [3] is filed under the species Homo sapiens. Nature of the assay: Activation of PP2A in human HA22T cells assessed as minimal concentration causing increase in protein phosphatase activity incubated for 24 hrs using phosphopeptide substrate incubated for 10 mins by malachite green-phosphate complex assay. It counts as cell-based.
The species named for assay [4] is Homo sapiens. Nature of the assay: Activation of PP2A in human SKHEP1 cells assessed as minimal concentration causing increase in protein phosphatase activity incubated for 24 hrs using phosphopeptide substrate incubated for 10 mins by malachite green-phosphate complex assay. The format is cell-based.
The species named for assay [5] is Homo sapiens. Nature of the assay: Activation of PP2A in human Hep3B cells assessed as minimal concentration causing increase in protein phosphatase activity incubated for 24 hrs using phosphopeptide substrate incubated for 10 mins by malachite green-phosphate complex assay. It counts as cell-based.
Assay [6] is filed under the species Homo sapiens. Nature of the assay: Inhibition of His-tagged recombinant human SET1 protein (1 to 290 amino acids) expressed in Escherichia coli interaction with N-terminal GST-tagged recombinant human PP2A-C (1 to 309 amino acids) assessed as minimal concentration causing disruption of SET-PP2Ac binding by SPR assay.
Assay [7] is filed under the species Homo sapiens. Put plainly: Activation of PP2A in human PLC5 cells assessed as minimal concentration causing increase in protein phosphatase activity incubated for 24 hrs using phosphopeptide substrate incubated for 10 mins by malachite green-phosphate complex assay. The format is cell-based.
For assay [8], the system named is SK-HEP1. Nature of the assay: Cytotoxicity against human SKHEP1 cells assessed as reduction in cell viability incubated for 48 hrs by MTT assay. The format is functional, cell-based.
Assay [9] deals with HA22T cell line. Put plainly: Induction of apoptosis in human HA22T cells assessed as accumulation at subG1 phase at 0.5 to 4 uM by flow cytometry. The format is functional, cell-based. A general note: A flow cytometer gives signals particle by particle.
Assay [10] has as its system HA22T cell line. Put plainly: Cytotoxicity against human HA22T cells assessed as reduction in cell viability incubated for 48 hrs by MTT assay. The format is functional, cell-based.
Assay [11] has as its system SK-HEP1. Put plainly: Induction of apoptosis in human SKHEP1 cells assessed as accumulation at subG1 phase at 0.5 to 4 uM by flow cytometry. It counts as functional, cell-based.
For assay [12], the species on record is Homo sapiens. Put plainly: Cytotoxicity against human PLC5 cells assessed as reduction in cell viability incubated for 48 hrs by MTT assay. The format is functional, cell-based.
In assay [13] the test system is Hep 3B2. Put plainly: Induction of apoptosis in human Hep3B cells assessed as accumulation at subG1 phase at 0.5 to 4 uM by flow cytometry. The format is functional, cell-based.
For assay [14], the species on record is Homo sapiens. Put plainly: Induction of apoptosis in human PLC5 cells assessed as accumulation at subG1 phase at 0.5 to 4 uM by flow cytometry. It counts as functional, cell-based.
The subject of assay [15] is Hep 3B2. Nature of the assay: Cytotoxicity against human Hep3B cells assessed as reduction in cell viability incubated for 48 hrs by MTT assay. The format is functional, cell-based.

Activity calls are given as the source filed them. The calls are words filed in the database; no cut-off is given here.

`CNC(=O)c1cc(Oc2ccc(NC(=O)Nc3ccc(Cl)c(C(F)(F)F)c3)cc2)ccn1`: the outcome in the assay filed under Homo sapiens [1] and in the assay with Homo sapiens [2] was Active.

For `O=[N+]([O-])c1ccc2nc(Nc3cccc(C(F)(F)F)c3)c(Nc3cccc(C(F)(F)F)c3)nc2c1`, the MEC in the assay filed under Homo sapiens [3], in the assay filed under Homo sapiens [4], in the assay listed under Homo sapiens [5], in the assay filed under Homo sapiens [6] and in the assay listed under Homo sapiens [7] was greater than 200 nM throughout.

On to `FC(F)(F)c1cc(Nc2nc3ccccc3nc2Nc2ccc(Cl)c(C(F)(F)F)c2)ccc1Cl`, for which the MEC in the assay listed under Homo sapiens [3] was 100 to 200 nM; in the assay listed under Homo sapiens [4], 100 to 200 nM; in the assay listed under Homo sapiens [5], 100 to 200 nM; in the assay listed under Homo sapiens [6] it was less than 100 nM; in the assay filed under Homo sapiens [7], 100 to 200 nM.

As to `Nc1ccc2nc(Nc3ccc(C(F)(F)F)cc3)c(Nc3ccc(C(F)(F)F)cc3)nc2c1`, the MEC in the assay filed under Homo sapiens [3], in the assay filed under Homo sapiens [4], in the assay filed under Homo sapiens [5], in the assay filed under Homo sapiens [6] and in the assay filed under Homo sapiens [7] was greater than 200 nM throughout.

With `C#Cc1cccc(Nc2nc3cc([N+](=O)[O-])ccc3nc2Nc2ccc(OC)cc2)c1`, the MEC in the assay listed under Homo sapiens [3], in the assay filed under Homo sapiens [4], in the assay filed under Homo sapiens [5], in the assay listed under Homo sapiens [6] and in the assay filed under Homo sapiens [7] was 100 to 200 nM in each case.

For the compound `FS(F)(F)(F)(F)c1ccc(Nc2nc3ccccc3nc2Cl)cc1`, the MEC in the assay listed under Homo sapiens [3], in the assay listed under Homo sapiens [4], in the assay filed under Homo sapiens [5], in the assay listed under Homo sapiens [6] and in the assay filed under Homo sapiens [7] was greater than 200 nM in each case.

In the case of `FC(F)(F)Oc1ccc(Nc2nc3ccccc3nc2Cl)cc1`, the MEC in the assay listed under Homo sapiens [3], in the assay filed under Homo sapiens [4], in the assay listed under Homo sapiens [5], in the assay filed under Homo sapiens [6] and in the assay filed under Homo sapiens [7] was greater than 200 nM each time.

With `Oc1ccc(Nc2nc3ccccc3nc2Nc2ccc(O)cc2)cc1`, the MEC in the assay filed under Homo sapiens [3] was 100 to 200 nM; in the assay listed under Homo sapiens [4], 100 to 200 nM; in the assay filed under Homo sapiens [5] it was 100 to 200 nM; in the assay filed under Homo sapiens [6], less than 100 nM; in the assay filed under Homo sapiens [7] it was 100 to 200 nM.

Take `FC(F)(F)c1cc(Nc2nc3ccccc3nc2Cl)cc(C(F)(F)F)c1`: the MEC in the assay listed under Homo sapiens [3], in the assay listed under Homo sapiens [4], in the assay filed under Homo sapiens [5], in the assay filed under Homo sapiens [6] and in the assay filed under Homo sapiens [7] was greater than 200 nM each time.

For the compound `C#Cc1cccc(Nc2nc3ccc([N+](=O)[O-])cc3nc2Nc2cccc(C#C)c2)c1`, the MEC is less than 50 nM in the assay filed under Homo sapiens [3]; less than 50 nM in the assay listed under Homo sapiens [4]; less than 50 nM in the assay listed under Homo sapiens [5]; 50 to 100 nM in the assay listed under Homo sapiens [6]; less than 50 nM in the assay filed under Homo sapiens [7].

As to `Clc1cc(Cl)cc(Nc2nc3ccccc3nc2Cl)c1`, the MEC was greater than 200 nM in the assay filed under Homo sapiens [3]; greater than 200 nM in the assay filed under Homo sapiens [4]; greater than 200 nM in the assay listed under Homo sapiens [5]; 100 to 200 nM in the assay listed under Homo sapiens [6]; greater than 200 nM in the assay listed under Homo sapiens [7].

Regarding `O=[N+]([O-])c1cccc(Nc2nc3ccccc3nc2Cl)c1`, the MEC in the assay listed under Homo sapiens [3], in the assay filed under Homo sapiens [4], in the assay listed under Homo sapiens [5], in the assay listed under Homo sapiens [6] and in the assay filed under Homo sapiens [7] was greater than 200 nM in each case.

Turning to `Clc1nc2ccccc2nc1NCc1ccccc1`, the MEC in the assay filed under Homo sapiens [3], in the assay listed under Homo sapiens [4], in the assay filed under Homo sapiens [5], in the assay listed under Homo sapiens [6] and in the assay filed under Homo sapiens [7] was greater than 200 nM in each case.

With `Clc1cccc(Nc2nc3ccccc3nc2Cl)c1`, the MEC in the assay filed under Homo sapiens [3], in the assay filed under Homo sapiens [4], in the assay filed under Homo sapiens [5], in the assay filed under Homo sapiens [6] and in the assay filed under Homo sapiens [7] was greater than 200 nM each time.

`O=[N+]([O-])c1ccc2nc(Nc3cccc(Br)c3)c(Nc3cccc(Br)c3)nc2c1`: the MEC in the assay filed under Homo sapiens [3], in the assay filed under Homo sapiens [4], in the assay listed under Homo sapiens [5], in the assay filed under Homo sapiens [6] and in the assay filed under Homo sapiens [7] was greater than 200 nM throughout.

On to `COc1ccc(Nc2nc3ccc([N+](=O)[O-])cc3nc2Nc2cccc(O)c2)cc1`, for which the MEC in the assay listed under Homo sapiens [3], in the assay filed under Homo sapiens [4], in the assay filed under Homo sapiens [5] and in the assay filed under Homo sapiens [7] was less than 100 nM throughout.

As for `FC(F)(F)Oc1ccc(Nc2nc3ccccc3nc2Nc2ccc(OC(F)(F)F)cc2)cc1`, the MEC is 50 to 100 nM in the assay listed under Homo sapiens [3]; 50 to 100 nM in the assay filed under Homo sapiens [4]; 50 to 100 nM in the assay listed under Homo sapiens [5]; less than 100 nM in the assay listed under Homo sapiens [6]; 50 to 100 nM in the assay filed under Homo sapiens [7].

As for `FS(F)(F)(F)(F)c1ccc(Nc2nc3ccccc3nc2Nc2ccc(S(F)(F)(F)(F)F)cc2)cc1`, the MEC in the assay listed under Homo sapiens [3] is less than 50 nM; in the assay filed under Homo sapiens [4], less than 50 nM; in the assay listed under Homo sapiens [5], less than 50 nM; in the assay filed under Homo sapiens [6], 50 nM; in the assay listed under Homo sapiens [7] it was less than 50 nM.

Consider `C#Cc1cccc(Nc2ncnc3cc(OCCOC)c(OCCOC)cc23)c1`, for which the outcome with SK-HEP1 [8], in the assay with HA22T cell line [9], in the assay on HA22T cell line [10], with SK-HEP1 [11], in the assay filed under Homo sapiens [12] and in the assay on Hep 3B2 [13] was Active. Besides, the outcome in the assay listed under Homo sapiens [14] and in the assay on Hep 3B2 [15] was Active.

Regarding `COc1cccc(Nc2nc3ccc([N+](=O)[O-])cc3nc2Nc2cccc(OC)c2)c1`, the MEC in the assay filed under Homo sapiens [3], in the assay filed under Homo sapiens [4], in the assay filed under Homo sapiens [5], in the assay filed under Homo sapiens [6] and in the assay filed under Homo sapiens [7] was greater than 200 nM each time.

With `Clc1nc2ccccc2nc1Nc1ccccc1`, the MEC in the assay listed under Homo sapiens [3], in the assay filed under Homo sapiens [4], in the assay filed under Homo sapiens [5], in the assay filed under Homo sapiens [6] and in the assay filed under Homo sapiens [7] was greater than 200 nM throughout.
